Measured values taken from patent publication US20220194938A1, “NOVEL COMPOUNDS AND PHARMACEUTICAL COMPOSITIONS THEREOF FOR THE TREATMENT OF INFLAMMATORY DISORDERS” (GALAPAGOS NV, priority 2019, published 2022).

Each compound was assayed against T1, human IRAK-4 (Homo sapiens, UniProt Q9NWZ3) (assay: Phosphorylation IC50 determination for human IRAK-4 (ADP-Glo kinase assay)). Details: human IRAK-4, RIP140 substrate, Km ATP; read-out: IRAK4 ADPglo biochemical assay IC50.
T1 construct: purchased Carna Biosciences 09 145
T1 sequence (Q9NWZ3 1-460): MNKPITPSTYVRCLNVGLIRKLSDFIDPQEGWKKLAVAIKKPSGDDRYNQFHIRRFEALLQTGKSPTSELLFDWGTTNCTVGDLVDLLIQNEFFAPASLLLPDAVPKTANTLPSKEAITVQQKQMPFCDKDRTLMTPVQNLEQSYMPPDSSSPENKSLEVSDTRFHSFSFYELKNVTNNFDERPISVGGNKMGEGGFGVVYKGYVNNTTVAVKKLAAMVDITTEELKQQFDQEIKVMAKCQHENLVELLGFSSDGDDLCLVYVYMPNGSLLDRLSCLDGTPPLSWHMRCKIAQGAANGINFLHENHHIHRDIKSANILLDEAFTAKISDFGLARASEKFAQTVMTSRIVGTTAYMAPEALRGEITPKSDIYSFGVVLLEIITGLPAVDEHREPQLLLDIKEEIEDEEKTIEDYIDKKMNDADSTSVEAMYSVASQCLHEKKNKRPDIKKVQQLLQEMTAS
Procedure, shortened: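 IRAK-4 phosphorylation of RIP140 at Km ATP in Tris pH 7.5 buffer with Triton X-100, EGTA, MgCl2, DTT and MnCl2, 120 min at room temperature. ADP formed was measured by ADP-Glo luminescence. Ten-point, 5-fold dilutions (highest final 20 μM, automated format; 1% DMSO), normalised to staurosporine (100%) and DMSO (0%) controls.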

SMILES	IC50
COc1cc2nc(CCC(C)(C)O)cn2cc1NC(=O)c1cccn(C)c1=O [Compound 4, N-[2-(3-hydroxy-3-methyl-butyl)-7-methoxy-imidazo[1,2-a]pyridin-6-yl]-1-methyl-2-oxo-pyridine-3-carboxamide]	5 to 10 nM
COc1cc2nc(CCC(C)(C)O)cn2cc1NC(=O)c1cccn(C(F)F)c1=O [Compound 12, 1-(difluoromethyl)-N-[2-(3-hydroxy-3-methyl-butyl)-7-methoxy-imidazo[1,2-a]pyridin-6-yl]-2-oxo-pyridine-3-carboxamide]	5 to 10 nM
COc1cc2nc(CCC(C)(C)O)cn2cc1NC(=O)c1cccn(CC(F)(F)F)c1=O [Compound 13, N-[2-(3-hydroxy-3-methyl-butyl)-7-methoxy-imidazo[1,2-a]pyridin-6-yl]-2-oxo-1-(2,2,2-trifluoroethyl)pyridine-3-carboxamide]	> 50 nM
CCn1cccc(C(=O)Nc2cn3cc(CCC(C)(C)O)nc3cc2OC)c1=O [Compound 23, 1-ethyl-N-[2-(3-hydroxy-3-methyl-butyl)-7-methoxy-imidazo[1,2-a]pyridin-6-yl]-2-oxo-pyridine-3-carboxamide]	5 to 10 nM
COc1cc2nc(CCS(C)(=O)=O)cn2cc1NC(=O)c1cccc(C(F)(F)F)n1 [Compound 24, N-[7-methoxy-2-(2-methylsulfonylethyl)imidazo[1,2-a]pyridin-6-yl]-6-(trifluoromethyl)pyridine-2-carboxamide]	0.1 to 5 nM
COc1cc2nc(CCS(C)(=O)=O)cn2cc1NC(=O)c1cccn(C2CC2)c1=O [Compound 25, 1-cyclopropyl-N-[7-methoxy-2-(2-methylsulfonylethyl)imidazo[1,2-a]pyridin-6-yl]-2-oxo-pyridine-3-carboxamide]	0.1 to 5 nM
CC(C)(O)CCc1cn2cc(NC(=O)c3cccc(C(F)(F)F)n3)c(C(N)=O)cc2n1 [Compound 31, 2-(3-hydroxy-3-methyl-butyl)-6-[[6-(trifluoromethyl)pyridine-2-carbonyl]amino]imidazo[1,2-a]pyridine-7-carboxamide]	0.1 to 5 nM
COCCc1cn2cc(NC(=O)c3cccc(C(F)(F)F)n3)c(OC)cc2n1 [Compound 35, N-[7-methoxy-2-(2-methoxyethyl)imidazo[1,2-a]pyridin-6-yl]-6-(trifluoromethyl)pyridine-2-carboxamide]	10 to 50 nM
CCOc1c(NC(=O)c2cccn(C3CC3)c2=O)cn2cc(CCC(C)(C)O)nc2c1F [Compound 37, 1-cyclopropyl-N-[7-ethoxy-8-fluoro-2-(3-hydroxy-3-methyl-butyl)imidazo[1,2-a]pyridin-6-yl]-2-oxo-pyridine-3-carboxamide]	0.1 to 5 nM
CCOc1c(NC(=O)c2cccn(C)c2=O)cn2cc(CCC(C)(C)O)nc2c1F [Compound 38, N-[7-ethoxy-8-fluoro-2-(3-hydroxy-3-methyl-butyl)imidazo[1,2-a]pyridin-6-yl]-1-methyl-2-oxo-pyridine-3-carboxamide]	5 to 10 nM
CCOc1c(NC(=O)c2cccn(C3CC3)c2=O)cn2cc(CCS(C)(=O)=O)nc2c1F [Compound 39, 1-cyclopropyl-N-[7-ethoxy-8-fluoro-2-(2-methylsulfonylethyl)imidazo[1,2-a]pyridin-6-yl]-2-oxo-pyridine-3-carboxamide]	5 to 10 nM
COc1c(NC(=O)c2cccn(C3CC3)c2=O)cn2cc(CCC(C)(C)O)nc2c1F [Compound 42, 1-cyclopropyl-N-[8-fluoro-2-(3-hydroxy-3-methyl-butyl)-7-methoxy-imidazo[1,2-a]pyridin-6-yl]-2-oxo-pyridine-3-carboxamide]	0.1 to 5 nM
CC(C)(O)CCc1cn2cc(NC(=O)c3cccc(C(F)(F)F)n3)c(C(=O)NCC(F)F)cc2n1 [Compound 48, N-(2,2-difluoroethyl)-2-(3-hydroxy-3-methylbutyl)-6-(6-(trifluoromethyl)picolinamido)imidazo[1,2-a]pyridine-7-carboxamide]	0.1 to 5 nM
CCNC(=O)c1cc2nc(CCC(C)(C)O)cn2cc1NC(=O)c1cccc(C(F)(F)F)n1 [Compound 49, N-ethyl-2-(3-hydroxy-3-methylbutyl)-6-(6-(trifluoromethyl)picolinamido)imidazo[1,2-a]pyridine-7-carboxamide]	0.1 to 5 nM

Second part, the compound after the results:

IC50	SMILES
0.1 to 5 nM	[2H]C([2H])([2H])NC(=O)c1cc2nc(CCC(C)(C)O)cn2cc1NC(=O)c1cccc(C(F)(F)F)n1 [Compound 1, 2-(3-hydroxy-3-methyl-butyl)-N-(trideuteriomethyl)-6-[[6-(trifluoromethyl)pyridine-2-carbonyl]amino]imidazo[1,2-a]pyridine-7-carboxamide]
0.1 to 5 nM	CNC(=O)c1cc2nc(CCC(C)(C)O)cn2cc1NC(=O)c1cccc(C(F)(F)F)n1 [Compound 2, 2-(3-hydroxy-3-methyl-butyl)-N-methyl-6-[[6-(trifluoromethyl)pyridine-2-carbonyl]amino]imidazo[1,2-a]pyridine-7-carboxamide]
0.1 to 5 nM	COc1cc2nc(CCC(C)(C)O)cn2cc1NC(=O)c1cccc(C(F)(F)F)n1 [Compound 3, N-[2-(3-hydroxy-3-methyl-butyl)-7-methoxy-imidazo[1,2-a]pyridin-6-yl]-6-(trifluoromethyl)pyridine-2-carboxamide]
0.1 to 5 nM	COc1cc2nc(CCC(C)(C)O)cn2cc1NC(=O)c1cccn(C2CC2)c1=O [Compound 5, 1-cyclopropyl-N-[2-(3-hydroxy-3-methyl-butyl)-7-methoxy-imidazo[1,2-a]pyridin-6-yl]-2-oxo-pyridine-3-carboxamide]
0.1 to 5 nM	COc1cc2nc(CCC(C)(C)O)cn2cc1NC(=O)c1cccc(C)n1 [Compound 6, N-[2-(3-hydroxy-3-methyl-butyl)-7-methoxy-imidazo[1,2-a]pyridin-6-yl]-6-methyl-pyridine-2-carboxamide]
0.1 to 5 nM	COc1cc2nc(CCC(C)(C)O)cn2cc1NC(=O)c1cccc(C(F)F)n1 [Compound 7, 6-(difluoromethyl)-N-[2-(3-hydroxy-3-methyl-butyl)-7-methoxy-imidazo[1,2-a]pyridin-6-yl]pyridine-2-carboxamide]
0.1 to 5 nM	COc1cccc(C(=O)Nc2cn3cc(CCC(C)(C)O)nc3cc2OC)n1 [Compound 8, N-[2-(3-hydroxy-3-methyl-butyl)-7-methoxy-imidazo[1,2-a]pyridin-6-yl]-6-methoxy-pyridine-2-carboxamide]
0.1 to 5 nM	COc1cc2nc(CCC(C)(C)O)cn2cc1NC(=O)c1cccn(C2CCC2)c1=O [Compound 18, 1-cyclobutyl-N-[2-(3-hydroxy-3-methyl-butyl)-7-methoxy-imidazo[1,2-a]pyridin-6-yl]-2-oxo-pyridine-3-carboxamide]
0.1 to 5 nM	COc1cc2nc(CCC(C)(C)O)cn2cc1NC(=O)c1cccc(C(C)(F)F)n1 [Compound 20, 6-(1,1-difluoroethyl)-N-[2-(3-hydroxy-3-methyl-butyl)-7-methoxy-imidazo[1,2-a]pyridin-6-yl]pyridine-2-carboxamide]
